Experimental data reported in ChEMBL document CHEMBL1152326, “Anti-inflammatory sesquiterpenoids from a sponge-derived Fungus Acremonium sp” (J Nat Prod, 2009).
Activity calls are given as the source filed them. The calls are words filed in the database; no cut-off is given here.

Assays:
RAW264.7 [1] = test: Antiinflammatory activity in mouse RAW264.7 cells assessed as inhibition of LPS-induced nitric oxide production at 100 uM after 24 hrs by Griess reagent method relative to control; format: functional, cell-based
RAW264.7 [2] = test: Antiinflammatory activity in mouse RAW264.7 cells assessed as inhibition of LPS-induced TNFalpha production at 100 uM after 24 hrs by ELISA relative to control; format: functional, cell-based

Row | SMILES | Activity (RAW264.7 [1]) | Activity (RAW264.7 [2])
1 | CC(/C=C/[C@@]1(C)[C@H](C)CCC(=O)[C@@H]1C)=C\Cc1c(O)c(Cl)c(C)c(C=O)c1O | Active | Active
2 | C/C(=C\Cc1c(O)c(Cl)c(C)c(C=O)c1O)CC/C=C(\C)[C@@H]1CC(=O)C(C)(C)O1 | Active | Active
3 | C/C(=C\Cc1c(O)c(Cl)c(C)c(C=O)c1O)CC[C@@]1(C)[C@H](C)CCC(=O)[C@@H]1C | Active | 
4 | C/C(=C\Cc1c(O)cc(C)c(C=O)c1O)CC[C@@]1(C)[C@H](C)CCC(=O)[C@@H]1C | Active | 
